The supplement of paper PMC10627819

Experiments:
S. pneumoniae D39V [1] = experiment: Bliss interaction score (quartile over a dose matrix) (fitness difference); higher = more antagonism (negative = synergy)
Outline: (§1)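 Growth was read as OD595 when cultures entered stationary phase, and each value was divided by the plate's robust no-drug mean and capped at 1. This normalised ratio is the fitness value, and fitness for each single drug came from the combination data. The Bliss score subtracts the expected fitness, taken as the product, from the observed fitness and is given as quartiles across technical, biological and donor/recipient replicates.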

B. subtilis 168 [2] = experiment: as above
Outline: as §1

S. aureus Newman = experiment: as above
Outline: as §1

S. aureus DSM 20231 = experiment: as above
Outline: as §1

S. pneumoniae D39V [3] = experiment: fitness (endpoint OD595 vs no drug) (fraction); higher = more growth
Outline: (§2)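 Fitness expresses the optical density reached at the stationary-phase transition as a fraction of the robust mean of no-drug control wells. It is capped at 1. Measurements were OD595 every 30 min for 14 h at 37 °C after inoculation of 384-well plates at OD595 0.01 (30 µl, or 55 µl for S. pneumoniae), minus the first reading.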

B. subtilis 168 [4] = experiment: as above
Outline: as §2
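Wherever Bliss interaction score (quartile over a dose matrix) is given: first quartile when negative (synergy) and third quartile when positive (antagonism).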
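Wherever fitness (endpoint OD595 vs no drug) is given: OD595 on entry to stationary phase over no-drug wells; at most 1.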

C[C@H]1c2cccc(O)c2C(=O)C2=C(O)[C@]3(O)C(=O)C(C(N)=O)=C(O)[C@@H](N(C)C)[C@@H]3[C@@H](O)[C@@H]21 [Doxycycline] + Cc1cc(NS(=O)(=O)c2ccc(N)cc2)no1 [Sulfamethoxazol]
Conditions	Bliss interaction score
B. subtilis 168 [2]	-0.0451
S. aureus DSM 20231	-0.0457
S. aureus Newman	-0.0242
S. pneumoniae D39V [1]	-0.0349

one replicate
Conditions	fitness
B. subtilis 168 [4], first compound 0.02 µg/mL, partner 0.5 µg/mL	0.829
B. subtilis 168 [4], first compound 0.04 µg/mL, partner 0.5 µg/mL	0.72
B. subtilis 168 [4], first compound 0.08 µg/mL, partner 0.5 µg/mL	0.456
S. pneumoniae D39V [3], first compound 0.003875 µg/mL, partner 1 µg/mL	≥ 1
S. pneumoniae D39V [3], first compound 0.003875 µg/mL, partner 2 µg/mL	≥ 1
S. pneumoniae D39V [3], first compound 0.003875 µg/mL, partner 4 µg/mL	≥ 1
S. pneumoniae D39V [3], first compound 0.00775 µg/mL, partner 1 µg/mL	0.961
S. pneumoniae D39V [3], first compound 0.00775 µg/mL, partner 2 µg/mL	0.967
S. pneumoniae D39V [3], first compound 0.00775 µg/mL, partner 4 µg/mL	0.963

fitness
Conditions	first compound 0.0155 µg/mL	first compound 0.02 µg/mL	first compound 0.031 µg/mL	first compound 0.04 µg/mL	first compound 0.062 µg/mL	first compound 0.08 µg/mL
B. subtilis 168 [4], partner 1 µg/mL	–	0.856	–	0.718	–	0.485
B. subtilis 168 [4], partner 2 µg/mL	–	0.818	–	0.702	–	0.424
B. subtilis 168 [4], partner 4 µg/mL	–	0.876	–	0.76	–	0.528
S. pneumoniae D39V [3], partner 1 µg/mL	0.929	–	0.848	–	0.755	–
S. pneumoniae D39V [3], partner 2 µg/mL	0.939	–	0.859	–	0.779	–
S. pneumoniae D39V [3], partner 4 µg/mL	0.897	–	0.81	–	0.77	–

C[C@H]1c2cccc(O)c2C(=O)C2=C(O)[C@]3(O)C(=O)C(C(N)=O)=C(O)[C@@H](N(C)C)[C@@H]3[C@@H](O)[C@@H]21 [Doxycycline] + Cc1ncc([N+](=O)[O-])n1CCO [Metronidazole]
Conditions	Bliss interaction score
B. subtilis 168 [2]	0.0635
S. aureus DSM 20231	0.0684
S. aureus Newman	0.0262
S. pneumoniae D39V [1]	0.0539

fitness, S. pneumoniae D39V [3], one replicate
Conditions	first compound 0.003875 µg/mL	first compound 0.00775 µg/mL	first compound 0.031 µg/mL	first compound 0.062 µg/mL
partner 1.25 µg/mL	≥ 1	≥ 1	0.938	0.775
partner 2.5 µg/mL	≥ 1	≥ 1	0.91	0.794
partner 5 µg/mL	≥ 1	≥ 1	0.892	0.757

fitness
Conditions	partner 0.625 µg/mL	partner 1.073 µg/mL	partner 1.25 µg/mL	partner 2.145 µg/mL	partner 2.5 µg/mL	partner 4.29 µg/mL	partner 5 µg/mL
B. subtilis 168 [4], first compound 0.02 µg/mL	0.914	–	0.899	–	0.933	–	–
B. subtilis 168 [4], first compound 0.04 µg/mL	0.774	–	0.835	–	0.844	–	–
B. subtilis 168 [4], first compound 0.08 µg/mL	0.701	–	0.682	–	0.61	–	–
S. pneumoniae D39V [3], first compound 0.0155 µg/mL	–	0.873	0.994	0.851	≥ 1	0.809	0.968
S. pneumoniae D39V [3], first compound 0.031 µg/mL	–	0.889	–	0.853	–	0.835	–
S. pneumoniae D39V [3], first compound 0.062 µg/mL	–	0.838	–	0.865	–	0.829	–
